Source: patent publication US20230000876A1, “TREATING CANCERS WITH A CYCLIN-DEPENDENT KINASE INHIBITOR” (Nuvation Bio Inc., priority 2021, published 2023)

Columns and labels:
[1] = system: NCI-H460-luc; test: CellTiter-Glo anti-proliferation assay, NCI-H460-luc; type: cell-based
Procedure: (§1) The anti-proliferation effect of 2 compounds (the compound of formula (I) and temozolomide) in 7 CNS metastasis cell lines (MOLT-4-luc, Nalm-6-luc, NCI-H460-luc, ACHN-luc2, PC-9-luc, H1975-luc, and KM12-luc) was evaluated.
(§2) The plating of cells and compound treatments are shown below in the plate map (Table 12). One plate was needed for the test of 2 compounds (the compound of formula (I) and temozolomide) in one cell line. The compound of formula (I) was tested from 10 μM, 3-fold serial dilution. Temozolomide was tested from 100 μM, 3-fold serial dilution.
(§3) All the cell lines were maintained in culture conditions at 37° C. in an atmosphere with 5% CO2 in air. The tumor cells were routinely subcultured. The cells growing in an exponential growth phase were harvested and counted for plating.
(§4) Cells were counted by haemocytometer with Trypan blue staining. Next, 135 μL of cell suspension were plated into the assay plates according to the plate map and 135 μL of assay medium into the blank wells. The plates were incubated at 37° C., 5% CO2, 95% air and 100% relative humidity overnight.
(§5) 4.4.4 Compound Plate (10×) Preparation and Compound Treatment • 10× concentrate compound plate preparation: Add 198 μL of assay medium into each well of the V-bottom plate; then transfer 2 μL of the stock compound solution of each concentration from the stock plate. Add 2 μL of DMSO into the Blank and Control wells. Pipette up and down to mix well. This V-plate is designated as the 10× concentrate compound plate. • For day 0 plate, add 15 μL of the DMSO-medium into the Control wells. The final DMSO concentration was 0.1%. Then directly proceed to cell viability assay. • For assay plate, add 15 μL of the compound-medium of each well from the 10× concentrate compound plate into the cells in 96-well assay plate according to the plate map. Add 15 μL of the DMSO-medium into the Blank and Control wells. The final DMSO concentration was 0.1%. • Return the assay plate into incubator and incubate for 6 days.
(§6) The procedures were performed according to the Promega CellTiter-Glo Luminescent Cell Viability Assay Kit manual (Promega-G7573). • The CellTiter-Glo buffer was thawed and equilibrated to room temperature prior to use. • CellTiter-Glo Substrate was equilibrated to room temperature prior to use. • The entire liquid volume of CellTiter-Glo Buffer was transferred into the amber bottle containing CellTiter-Glo Substrate to reconstitute the lyophilized enzyme/substrate mixture. This forms the CellTiter-Glo Reagent. • The contents were mixed by gently vortexing to obtain a homogeneous solution. • The plate was equilibrated and its contents to room temperature for approximately 30 minutes. 75 μL (equal to the half volume of culture medium present in each well) CellTiter-Glo • Reagent was added in each well. Plates were covered with aluminum foil to protect from light. • The contents were mixed for 2 minutes on an orbital shaker to induce cell lysis. • The plate was incubated at room temperature for 20 minutes to stabilize luminescent signal. • Record luminescence on the 2104 EnVision plate reader.
(§7) Inhibition rate (IR) of the tested compounds was determined by the following formula: IR (%)=(1−(RLU compound−RLU day0)/(RLU control−RLU day0))*100%. The inhibitions of different dose of compound were calculated in Excel file, and then were used to plot inhibition curves and evaluate related parameters, such as Min (%), Max (%) and GI50. The data were interpreted by GraphPad Prism.

[2] = system: KM12-luc; test: CellTiter-Glo anti-proliferation assay, KM12-luc; type: cell-based
Procedure: as §1, §2, §3, §4, §5, §6, §7

[3] = system: MOLT-4-luc; test: CellTiter-Glo anti-proliferation assay, MOLT-4-luc; type: cell-based
Procedure: as §1, §2, §3, §4, §5, §6, §7

[4] = system: ACHN-luc2; test: CellTiter-Glo anti-proliferation assay, ACHN-luc2; type: cell-based
Procedure: as §1, §2, §3, §4, §5, §6, §7

[5] = system: U-87MG-luc orthotopic intracranial tumors; test: U-87MG-luc glioblastoma orthotopic intracranial model, survival; type: in vivo, female BALB/c nude mice; conditions: 1 mg/kg PO*QD × 5/7 days (vehicle 37 days)
Procedure: U-87MG-luc cells were derived from U-87MG parental cells acquired from ATCC by stably introducing the gene that encodes the luciferase (luc) protein. The U-87MG-luc cells were cultured at 37° C. in an atmosphere of 5% CO2 in air. The tumor cells were routinely subcultured twice weekly. The cells growing in an exponential growth phase were harvested and counted for tumor inoculation.
3×10^5 U-87MG-luc tumor cells were micro-injected into the right lobe (caudate nucleus) of the brain of each mouse. A total of 94 mice were inoculated. Ten days after cell inoculation, bioluminescence were measured by Xenogen IVIS Lumina II machine, 70 mice were selected and randomly assigned into 7 groups based on bioluminescence intensity and bodyweight. The mice were dosed according to Table 25.

[6] = system: U-118MG xenograft tumors; test: U-118MG glioma subcutaneous xenograft model; type: in vivo, female CB17 SCID mice; conditions: QD; for Tumor volume (mean ± SEM): 1 mg/kg PO
Procedure: The tumor cells were routinely subcultured twice weekly. The cells growing in an exponential growth phase were harvested and counted for tumor inoculation.
The treatments was started on day 7 after tumor inoculation when the average tumor volume reached 150 mm^3. 60 mice were selected and assigned into 6 groups. The testing articles were administrated to the mice according to Table 1.
Tumor size was measured twice weekly in two dimensions using a caliper, and the volume was expressed in mm^3 using the formula: V=0.5 a×b^2 where a and b are the long and short diameters of the tumor, respectively. The tumor sizes are then used for the calculation of T/C and TGI values.
The T/C value (in percent) is an indication of antitumor effectiveness; T and C are the mean volume of the treated and control groups, respectively, on a given day.
TGI was calculated for each group using the formula: TGI (%)=[1−(Ti−T0)/(Vi−V0)]×100; Ti is the average tumor volume of a treatment group on PG-D28 T0 is the average tumor volume of the treatment group on the day of treatment start, Vi is the average tumor volume of the vehicle control group on the same day with Ti, and V0 is the average tumor volume of the vehicle group on the day of treatment start.
All Groups were taken down on PG-D28, tumor, plasma and brain samples were collected.
For statistical analysis for difference among groups 2-6 and group 1, a one-way ANOVA was performed. All the analysis were conducted using GraphPad Prism software. p<0.05 was considered to be statistically significant.

[7] = system: H1975-luc; test: CellTiter-Glo anti-proliferation assay, H1975-luc; type: cell-based
Procedure: as §1, §2, §3, §4, §5, §6, §7

[8] = system: Nalm-6-luc; test: CellTiter-Glo anti-proliferation assay, Nalm-6-luc; type: cell-based
Procedure: as §1, §2, §3, §4, §5, §6, §7

[9] = system: PC-9-luc; test: CellTiter-Glo anti-proliferation assay, PC-9-luc; type: cell-based
Procedure: as §1, §2, §3, §4, §5, §6, §7

[10] = inhibition rate, 6 days, Compound (I) from 10 μM, temozolomide from 100 μM, 3-fold, 9 points
[11] = 144 h, 6 days incubation, read-out: Absolute GI50
[12] = Group 6: Temozolomide 1 mg/kg PO, PG-D27

## Cn1nnc2c(C(N)=O)ncn2c1=O [Temozolomide, reference compound]
[1]; NCI-H460-Luc, 144 h, 6 days incubation, read-out: Absolute GI50
  GI50: > 100 µM
[1]; [10]
  Max (%): 7.2%
  Min (%): 4.8%
[2]; KM12-Luc, 144 h, 6 days incubation, read-out: Absolute GI50
  GI50: > 100 µM
[2]; [10]
  Max (%): 1.6%
  Min (%): −12.1%
[3]; [11]
  GI50: > 100 µM
[3]; [10]
  Max (%): 23.2%
  Min (%): −2.2%
[4]; ACHN-luc2, 144 h, 6 days incubation, read-out: Absolute GI50
  GI50: > 100 µM
[4]; [10]
  Max (%): 20.0%
  Min (%): 2.8%
[5]
  Median survival: 44 days
[6]; day 0
  Tumor volume (mean ± SEM): 154 ± 12 mm^3
[6]; day 3
  Tumor volume (mean ± SEM): 239 ± 18 mm^3
[6]; day 7
  Tumor volume (mean ± SEM): 306 ± 17 mm^3
[6]; day 10
  Tumor volume (mean ± SEM): 346 ± 22 mm^3
[6]; day 14
  Tumor volume (mean ± SEM): 358 ± 22 mm^3
[6]; day 17
  Tumor volume (mean ± SEM): 395 ± 30 mm^3
[6]; day 21
  Tumor volume (mean ± SEM): 411 ± 31 mm^3
[6]; day 24
  Tumor volume (mean ± SEM): 423 ± 35 mm^3
[6]; day 28
  Tumor volume (mean ± SEM): 473 ± 44 mm^3
[6]; [12]
  T/C: 74.94%
  TGI: 33.24%
  Tumor Size: 473 ± 44 mm^3
[7]; [11]
  GI50: > 100 µM
[7]; [10]
  Max (%): 13.0%
  Min (%): −0.3%
[8]; [11]
  GI50: > 100 µM
[8]; [10]
  Max (%): 22.9%
  Min (%): 6.5%
[9]; [11]
  GI50: > 100 µM
[9]; [10]
  Max (%): 5.6%
  Min (%): −13.1%
